Measurements: US6197774A, “Pyrimidine derivative” (Otsuka Pharmaceutical Co., Ltd., priority 1997, dated 2001)

Legend:
[1] = test system: contact hypersensitivity; experiment: Contact hypersensitivity model in mouse (atopic dermatitis model); assay type: in vivo; conditions: po, 30 minutes before causal induction, 24 hours, read-out: Control % (intumescence of the pinna, untreated = 100); for response vs control in vivo at 20 mg/kg: 20 mg/Kg p.o.; for response vs control in vivo at 3 mg/kg: 3 mg/Kg p.o.
Procedure: [Contact hypersensitivity model in mouse (Atopic dermatisis model)]
Test was conducted by referring to the method as described in "HIFU (a Japanese journal of dermatology)" Vol. 35, Supplemental Issue No. 15, pp. 96-106, published on March 1993.
CBA/J strain mice of 6-8 week age were used as the test animals (6-8 mice in one group). The mouse was sensitized by coating 150 μl of 5% of picryl chloride [dissolved in a mixture of acetone with olive oil (1:4)] on the shaved portion of skin in the back of mouse. […] 24 Hours after the causal induction, the effect for inhibiting contact hypersensitivity performed by the test compounds were evaluated by referring to the action for inhibiting intumescence of the pinna as an indication. The test compound was orally administered 30 minutes before the causal induction.
The following compounds were used for the test.
1) Compounds of the Present Invention:
(Dosage: 20 mg/Kg p.o., which is 7-10 times larger amount of dosages for compounds of the present invention)
The value obtained from the sensitization test without administration of the test compound was referred to as 100, and by comparing with the values obtained from the sensitization test with administration of the test compound was referred to "% control" values.

[2] = test system: late asthmatic response; experiment: Model experiment of asthma in guinea pigs (inhibition of late asthmatic response); assay type: in vivo, guinea pig; conditions: control 112 ± 17.8
Procedure: [Model experiment of asthma in guinea pigs. (Inhibition of late asthmatic response)]
Hartley strain female guinea pigs (SLC) having the body weight of about 350 g were used and 50 mg/Kg of cyclophosphamide (mfd. by Sigma Chemical Co.) was injected intraperitoneally. 2 Days after this pretreatment by injection, 1 mg of egg albumin (mfd. by Sigma Chemical Co.) and 100 mg of aluminum hydroxide (Wako Pure Chemical Industries Co., Ltd.) were injected intraperitoneally for sensitization. 3 Weeks after the sensitization, 10 μg of egg albumin and 100 mg of aluminum hydroxide were injected intraperitoneally for booster sensitization. 6 Weeks after the primary sensitization, asthma attach was induced by inhalation and exposure to egg albumin (4 mg/ml) by using a nebulizer (NE-U12: mfd. by Omron Corp.). The asthma reaction was determined by use of a body-plethysmography (using system developed by Uchida lecturer in internal department for respiratory organs at Tsukuba University; air-resist tube, respiratory amplifier and differential pressure transducer (mfd. by Nihon Koden); and osciloscope (mfd. by Iwasaki Tsushin)), so as to determine a […] of specific airway conductance (sGaw) under the condition without anesthesia. The sGaw value just before the administration of test comopound was measured and the value is referred to as 100. Test compound was suspended in 1% HPMC (hydroxymethylpropylcellulose mfd. by Shinetsu Chemical), and was administered orally 30 minutes before the exposure with the antigen. Then, sGaw value was measured in each points until 7 hours after the exposure with the antigen.

[3] = test system: formation of NO in cell strain RAW 264.7; experiment: Activity for inhibiting the formation of NO (LPS-stimulated RAW 264.7 cells, Griess reagent); assay type: cell-based; conditions: Mus musculus, RAW264.7, 1 × 10^-6 M, LPS 100 ng/ml, 24 hours, read-out: Ratio of formed amount of NO (reference culture medium = 100)
Procedure: [Evaluation test of activity for inhibiting the formation of NO]
Pharmacological tests of pyrimidine derivatives obtained in Examples 1, 12, 14, 19, 22, 24, 29 and 42 used as test compounds were conducted as follows.
Preparation of culture media and method of cell culture were conducted in accordance with those described in J. Biol. Chem., Vol. 269, No. 1, pp. 711-715, (1994), and determination of formed amount of NO was conducted in accordance with the method described in Anal. Biochem., Vol. 126, pp. 131-138, (1982), respectively.
(1) Cell Culture and Inducible Synthesis of NO in the Cells by Stimulation with Lipopolysaccharide (LPS)
Cell strain RAW 264.7 (ATCC) derived from the macrophage of mouse was placed on each one of the wells on a microplate having 24-wells so as to put the cells in an amount of 1×10^5 cells/U (well). The cells were incubated for 24 hours in a phenol red free-RPMI-1640 culture medium (mfd. by GIBCO) to which 10% of fetal bovine serum, 100 U/ml of penicillin (mfd. by Dainippon Pharmaceutical Co., Ltd.) and 100 μg/ml of streptomycin (mfd. by Dainippon Pharmaceutical Co., Ltd.) were added.
Next, the reference culture medium was prepared by adding 2 mM of L-arginine (mfd. by Wako Pure Chemical Industries, Ltd.), 10 μM/ml of tetrahydrobiopterin (mfd. by ALEXIS) and 100 ng/ml of lipopolysaccharide (LPS)(mfd. by Sigma Chemical Co.) to a phenol red free-RPMI-1640 culture medium. While, the reference culture medium without containing LPS was used as the blanc culture medium.
On the other hand, the test culture medium, containing the test compound was prepared by adding 0.2% of the test compounds dissolved in dimethyl sulfoxide (DMSO) to the reference culture medium to adjust the final concentration of the test compound to 1×10^-6 M.
Each one of the blank culture medium, reference culture medium and test culture medium containing the test compound was added, respectively to the well on the micro-plate where the above-mentioned cell strain RAW 264.7 was placed, and was incubated for 24 hours.
(2) Measurement of the Amount of Formed NO
Quantitative measurement of NO cannot be made directly, due to its unstability. Therefore, the amount of NO is measured indirectly, thus by forming nitrous acid ion (hereunder referred to as NO2^-) which is stable product derived from NO by use of Griess reagent [consisting of 1% of sulfanylamide and 0.1% of sulfuric acid solution containing 0.1% N-(1-naphthyl)ethylenediamine dihydrochloride], and measure the amount of NO2^-.
Into the supernatant of each one of the culture media was admixed with the same amount of Griess reagent respectively, and subjected to reaction at room temperature for 10 minutes, then the optical absorbance at 540 nm of the thus reacted culture medium was measured. While, the optical absorbance of sodium nitrite solution diluted with the culture medium was referred to as the standard value, and the amount of NO2^- formed in each one of these incubated culture media was measured. The amounts of NO2^- formed in the reference culture medium and the test culture medium were corrected by using the value of formed amount of NO2^- in the blanc culture medium.
On the basis of that the ratio of amounts of NO2^- formed in the reference culture medium and that of formed in the test culture medium is corresponding to the ratio of amount of NO formed in the reference culture medium and that of formed in the test culture medium. Thus the amount of NO2^- formed in the reference culture medium is referred to as the value of 100, and the value of amount of NO2^- formed in the test culture medium is referred to as amount of NO formed in the test culture medium.

[4] = Toxicity of compound against the cell strain RAW 264.7 (MTT); assay type: cell-based; conditions: mouse, raw 264.7 cells, 1 × 10^-6 M, read-out: Ratio of optical absorbance
Procedure: [Toxicity test (Toxicity of compound against the cell strain RAW 264.7)]
Test was conducted in accordance with the method as described in J. Immunol. Methods, Vol. 94, pp. 57-68, (1986). Cell strain RAW 264.7 derived from the macrophage of mouse was incubated similarly as in the method of Test Example 1(1). After that, MTT reagent (5 mg/ml) in 1/10 amount of the culture medium was added to the cells, and incubated for 4 hours. The supernatant of culture medium was taken off, then the cells were collected by using 1% SDS solution and the optical absorbance at 570-630 nm of the SDS solution was measured.

| SMILES | response vs control in vivo at 20 mg/kg [1] [%] | activity at 1 µM [3] [%] | other results |
| --- | --- | --- | --- |
| Oc1cc(C2CC2)nc2c(-c3ccc(Sc4ccccc4)cc3)cnn12 [(1), 7-Hydroxy-5-cyclopropyl-3-(4-phenylthiophenyl)pyrazolo[1,5-a]pyrimidine] | 99 |  |  |
| Cc1cc(O)n2ncc(-c3ccc(Sc4ccccc4)cc3)c2n1 [(2), 7-Hydroxy-5-methyl-3-(4-phenylthiophenyl)pyrazolo[1,5-a]pyrimidine] | 90 |  |  |
| COCc1nn2c(O)ccnc2c1-c1ccc(Sc2ccccc2)cc1 [(3), 7-Hydroxy-2-methoxymethyl-3-(4-phenylthiophenyl)pyrazolo[1,5-a]pyrimidine] | 104 |  |  |
| Oc1cc(CCl)nc2cc(-c3ccccc3)nn12 [(4), 7-Hydroxy-5-chloromethyl-2-phenylpyrazolo[1,5-a]pyrimidine] | 103 |  |  |
| Oc1ccnc2c(-c3cccc(C(F)(F)F)c3)cnn12 [(5), 7-Hydroxy-3-(3-trifluoromethylphenyl)pyrazolo [1,5-a]pyrimidine] | 90.4 |  |  |
| COc1cc(-c2c(-c3ccccn3)nn3c(O)cc(C)nc23)ccc1Sc1ccccc1 [(6), 7-Hydroxy-5-methyl-3-(3-methoxy-4-phenylthiophenyl)-2-(2-pyridyl)pyrazolo[1,5-a]pyrimidine] | 94.7 |  |  |
| Oc1cc(CCl)nc2cc(-c3ccc(Sc4ccccc4)cc3)nn12 [(7), 7-Hydroxy-5-chloromethyl-2-(4-phenylthiophenyl)pyrazolo[1,5-a]pyrimidine] | 113 |  |  |
| Oc1ccnc2c(-c3ccc(Sc4ccccc4)cc3)cnn12 [(8), 7-Hydroxy-3-(4-phenylthiophenyl)pyrazolo[1,5-a]pyrimidine] | 100 |  | AUC (4-7 hours) of sGaw reaction ([2]; 39 mg/Kg (so in the source) orally 30 minutes before antigen, 3 animals): 127.9 ± 45.4 |
| O=c1cc(COc2ccccc2)[nH]c2c(-c3ccc(Sc4ccccc4)cc3)cnn12 [Example 12, 4,7-dihydro-7-oxo-5-phenoxymethyl-3-(4-phenylthiophenyl)pyrazolo[1,5-a]pyrimidine] |  | 67 | viability at 1 µM [4]: 103% |
| COCCOCc1cc(=O)n2ncc(-c3ccc(Sc4ccccc4)cc3)c2[nH]1 [Example 14, 4,7-dihydro-5-(2-methoxyethoxymethyl)-7-oxo-3-(4-phenylthiophenyl)pyrazolo[1,5-a]pyrimidine] |  | 64.4 | viability at 1 µM [4]: 94.2% |
| CC(C)(C)OCCOCc1cc(=O)n2ncc(-c3ccc(Sc4ccccc4)cc3)c2[nH]1 [Example 15, 5-(2-t-butoxyethoxymethyl)-4,7-dihydro-7-oxo-3-(4-phenylthiophenyl)pyrazolo[1,5-a]pyrimidine] |  |  | response vs control in vivo at 3 mg/kg [1]: 46.3% |
| O=c1cc(C2CCCO2)[nH]c2c(-c3ccc(Sc4ccccc4)cc3)cnn12 (stereo not drawn) [Example 19, 4,7-dihydro-7-oxo-3-(4-phenylthiophenyl)-5-(tetrahydrofuran-2-yl)pyrazolo[1,5-a]pyrimidine] |  | 63.1 | response vs control in vivo at 3 mg/kg [1]: 44.7% |
| COCCc1cc(=O)n2ncc(-c3ccc(Sc4ccccc4)cc3)c2[nH]1 [Example 22, 4,7-dihydro-5-(2-methoxyethyl)-7-oxo-3-(4-phenylthiophenyl)pyrazolo[1,5-a]pyrimidine] |  | 60.3 | viability at 1 µM [4]: 101% |
| COC(OC)c1cc(=O)n2ncc(-c3ccc(Sc4ccccc4)cc3)c2[nH]1 [Example 24, 4,7-dihydro-5-dimethoxymethyl-7-oxo-3-(4-phenylthiophenyl)pyrazolo[1,5-a]pyrimidine] |  | 67.3 | viability at 1 µM [4]: 108% |
| CSCc1cc(=O)n2ncc(-c3ccc(Sc4ccccc4)cc3)c2[nH]1 [Example 29, 4,7-dihydro-5-methylthiomethyl-7-oxo-3-(4-phenylthiophenyl)pyrazolo[1,5-a]pyrimidine] |  | 52.2 | viability at 1 µM [4]: 89.7% |
| COCc1cc(=O)n2nc(COC)c(-c3ccc(Sc4ccccc4)cc3)c2[nH]1 [Example 42, 2,5-bis(methoxymethyl)-4,7-dihydro-7-oxo-3-(4-phenylthiophenyl)pyrazolo[1,5-a]-pyrimidine] |  | 55.4 |  |
| C[C@]12C=CC(=O)C=C1CC[C@@H]1[C@@H]2[C@@H](O)C[C@@]2(C)[C@H]1CC[C@]2(O)C(=O)CO [Prednizolone] |  |  | AUC (4-7 hours) of sGaw reaction ([2]; 30 mg/Kg orally 30 minutes before antigen, 8 animals): 15.6 ± 3.5 |
